{"source": "paper PMC7026418", "about": "“The kinase polypharmacology landscape of clinical PARP inhibitors” (Scientific Reports, 2020)", "assay_in_all_cases": "biochemical", "parameters_in_all_cases": "DiscoveRx KINOMEscan active site-directed competition binding; percent of control kinase bound to immobilised ligand", "key": {"[1]": {"target": "T1, HUNK (Homo sapiens, UniProt P57058)", "T1 sequence (P57058 1-714)": "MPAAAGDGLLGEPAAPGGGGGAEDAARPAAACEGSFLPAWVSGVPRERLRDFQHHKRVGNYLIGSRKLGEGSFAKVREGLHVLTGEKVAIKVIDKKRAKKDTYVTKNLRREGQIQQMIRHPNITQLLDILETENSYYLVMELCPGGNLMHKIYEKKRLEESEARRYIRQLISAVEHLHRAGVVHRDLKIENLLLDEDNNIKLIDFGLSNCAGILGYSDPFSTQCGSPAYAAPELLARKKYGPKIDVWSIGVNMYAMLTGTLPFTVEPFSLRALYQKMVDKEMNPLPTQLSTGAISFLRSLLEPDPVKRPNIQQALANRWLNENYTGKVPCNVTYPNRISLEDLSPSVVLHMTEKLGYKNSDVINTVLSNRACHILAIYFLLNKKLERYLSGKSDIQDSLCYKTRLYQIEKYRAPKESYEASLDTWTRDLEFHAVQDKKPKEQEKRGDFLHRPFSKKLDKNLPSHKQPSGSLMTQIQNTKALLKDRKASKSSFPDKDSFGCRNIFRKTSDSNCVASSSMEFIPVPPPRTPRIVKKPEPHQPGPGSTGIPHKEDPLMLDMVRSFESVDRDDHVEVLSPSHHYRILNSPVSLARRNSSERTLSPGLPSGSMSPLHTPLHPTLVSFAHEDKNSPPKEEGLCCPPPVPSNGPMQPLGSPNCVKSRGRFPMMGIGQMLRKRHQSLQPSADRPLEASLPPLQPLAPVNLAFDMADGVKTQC"}, "[2]": {"target": "T2, ERK3 (Homo sapiens, UniProt Q16659)", "T2 construct": "gene MAPK6", "T2 sequence (Q16659 whole entry)": "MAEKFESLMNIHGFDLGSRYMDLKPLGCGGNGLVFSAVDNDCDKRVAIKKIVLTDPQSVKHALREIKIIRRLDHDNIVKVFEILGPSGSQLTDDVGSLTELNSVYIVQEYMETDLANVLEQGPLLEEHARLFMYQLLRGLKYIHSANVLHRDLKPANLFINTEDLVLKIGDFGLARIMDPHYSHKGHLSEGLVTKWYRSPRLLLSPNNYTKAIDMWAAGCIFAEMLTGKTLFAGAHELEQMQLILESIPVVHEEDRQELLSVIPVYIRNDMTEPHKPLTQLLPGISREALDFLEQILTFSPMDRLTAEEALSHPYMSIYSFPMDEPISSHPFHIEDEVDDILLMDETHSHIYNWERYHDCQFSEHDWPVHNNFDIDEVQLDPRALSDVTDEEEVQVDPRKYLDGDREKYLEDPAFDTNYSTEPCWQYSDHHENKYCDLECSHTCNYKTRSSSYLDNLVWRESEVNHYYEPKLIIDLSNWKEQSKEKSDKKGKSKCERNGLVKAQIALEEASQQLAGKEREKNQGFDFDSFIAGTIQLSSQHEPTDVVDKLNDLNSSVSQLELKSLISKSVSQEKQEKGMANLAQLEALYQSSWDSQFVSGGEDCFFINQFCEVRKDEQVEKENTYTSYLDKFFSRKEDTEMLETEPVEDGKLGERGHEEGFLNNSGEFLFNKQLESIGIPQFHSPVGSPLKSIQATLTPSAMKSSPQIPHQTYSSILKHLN"}, "[3]": {"target": "TNK2 (Homo sapiens, UniProt Q07912)", "sequence (Q07912 whole entry)": "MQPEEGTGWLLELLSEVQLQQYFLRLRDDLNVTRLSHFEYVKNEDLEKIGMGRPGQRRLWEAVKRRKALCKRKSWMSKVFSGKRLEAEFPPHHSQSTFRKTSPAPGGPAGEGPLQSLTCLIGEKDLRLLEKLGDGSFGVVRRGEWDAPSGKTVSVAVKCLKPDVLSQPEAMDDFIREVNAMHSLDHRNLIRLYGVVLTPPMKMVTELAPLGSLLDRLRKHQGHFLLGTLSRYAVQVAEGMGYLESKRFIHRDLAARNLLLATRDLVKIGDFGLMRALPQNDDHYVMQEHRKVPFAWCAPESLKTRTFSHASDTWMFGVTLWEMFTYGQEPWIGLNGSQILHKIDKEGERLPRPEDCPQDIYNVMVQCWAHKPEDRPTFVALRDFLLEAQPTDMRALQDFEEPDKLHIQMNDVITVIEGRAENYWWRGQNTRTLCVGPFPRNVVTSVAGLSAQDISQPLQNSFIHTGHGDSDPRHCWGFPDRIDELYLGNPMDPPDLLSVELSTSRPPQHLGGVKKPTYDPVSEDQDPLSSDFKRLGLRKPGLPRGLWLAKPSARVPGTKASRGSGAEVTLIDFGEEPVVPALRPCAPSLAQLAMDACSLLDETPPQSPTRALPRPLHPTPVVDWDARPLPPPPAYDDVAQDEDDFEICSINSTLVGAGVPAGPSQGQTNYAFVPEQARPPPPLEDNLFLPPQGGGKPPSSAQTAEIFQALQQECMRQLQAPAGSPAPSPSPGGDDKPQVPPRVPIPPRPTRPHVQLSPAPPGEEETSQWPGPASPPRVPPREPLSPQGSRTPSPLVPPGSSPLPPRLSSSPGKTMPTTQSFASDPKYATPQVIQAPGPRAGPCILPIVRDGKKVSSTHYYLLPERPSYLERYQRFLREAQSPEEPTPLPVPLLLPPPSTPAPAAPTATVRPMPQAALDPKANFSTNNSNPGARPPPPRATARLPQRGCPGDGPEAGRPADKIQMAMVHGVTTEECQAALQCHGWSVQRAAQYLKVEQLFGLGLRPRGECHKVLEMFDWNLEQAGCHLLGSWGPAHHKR"}, "[4]": {"target": "NEK7 (Homo sapiens, UniProt Q8TDX7)", "sequence (Q8TDX7 whole entry)": "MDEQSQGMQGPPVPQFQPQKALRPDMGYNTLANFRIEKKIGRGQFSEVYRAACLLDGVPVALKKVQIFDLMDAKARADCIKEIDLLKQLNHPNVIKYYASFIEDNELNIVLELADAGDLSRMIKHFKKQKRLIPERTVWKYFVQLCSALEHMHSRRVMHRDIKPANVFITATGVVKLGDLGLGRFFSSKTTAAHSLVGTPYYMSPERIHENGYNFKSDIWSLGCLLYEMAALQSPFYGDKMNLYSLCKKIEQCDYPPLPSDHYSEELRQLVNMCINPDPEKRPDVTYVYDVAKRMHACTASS"}, "[5]": {"target": "BUB1 (Homo sapiens, UniProt O43683)", "sequence (O43683 whole entry)": "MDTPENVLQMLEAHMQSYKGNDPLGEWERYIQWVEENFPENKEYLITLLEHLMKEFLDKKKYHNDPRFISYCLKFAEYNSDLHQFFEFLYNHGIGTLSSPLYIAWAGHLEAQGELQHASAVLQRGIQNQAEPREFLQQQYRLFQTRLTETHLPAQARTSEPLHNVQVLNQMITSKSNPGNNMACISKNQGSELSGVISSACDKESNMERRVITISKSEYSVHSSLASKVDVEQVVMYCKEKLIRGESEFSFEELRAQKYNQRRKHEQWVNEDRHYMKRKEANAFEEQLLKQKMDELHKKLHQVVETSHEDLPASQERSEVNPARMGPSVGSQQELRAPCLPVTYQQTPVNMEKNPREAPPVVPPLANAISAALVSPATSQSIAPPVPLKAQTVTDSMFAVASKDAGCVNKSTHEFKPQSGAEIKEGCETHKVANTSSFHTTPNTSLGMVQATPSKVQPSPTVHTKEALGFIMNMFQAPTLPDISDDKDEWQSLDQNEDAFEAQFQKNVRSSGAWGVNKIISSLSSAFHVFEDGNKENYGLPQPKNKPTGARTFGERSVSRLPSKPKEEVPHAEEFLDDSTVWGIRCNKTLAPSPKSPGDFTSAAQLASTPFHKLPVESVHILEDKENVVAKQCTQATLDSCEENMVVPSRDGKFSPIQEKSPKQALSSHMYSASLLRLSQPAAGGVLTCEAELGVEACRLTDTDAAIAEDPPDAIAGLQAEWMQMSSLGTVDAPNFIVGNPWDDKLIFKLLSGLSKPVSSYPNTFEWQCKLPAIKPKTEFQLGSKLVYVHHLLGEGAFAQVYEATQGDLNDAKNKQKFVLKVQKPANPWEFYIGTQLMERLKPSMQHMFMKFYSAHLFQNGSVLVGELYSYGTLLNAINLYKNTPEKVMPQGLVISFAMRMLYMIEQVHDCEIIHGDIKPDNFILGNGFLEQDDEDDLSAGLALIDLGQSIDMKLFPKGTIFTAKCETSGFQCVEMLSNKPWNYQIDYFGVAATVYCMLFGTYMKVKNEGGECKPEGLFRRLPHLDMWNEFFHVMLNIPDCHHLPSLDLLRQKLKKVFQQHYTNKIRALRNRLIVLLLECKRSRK"}, "[6]": {"target": "T3, p38-beta (Homo sapiens, UniProt Q15759)", "T3 construct": "gene MAPK11", "T3 sequence (Q15759 whole entry)": "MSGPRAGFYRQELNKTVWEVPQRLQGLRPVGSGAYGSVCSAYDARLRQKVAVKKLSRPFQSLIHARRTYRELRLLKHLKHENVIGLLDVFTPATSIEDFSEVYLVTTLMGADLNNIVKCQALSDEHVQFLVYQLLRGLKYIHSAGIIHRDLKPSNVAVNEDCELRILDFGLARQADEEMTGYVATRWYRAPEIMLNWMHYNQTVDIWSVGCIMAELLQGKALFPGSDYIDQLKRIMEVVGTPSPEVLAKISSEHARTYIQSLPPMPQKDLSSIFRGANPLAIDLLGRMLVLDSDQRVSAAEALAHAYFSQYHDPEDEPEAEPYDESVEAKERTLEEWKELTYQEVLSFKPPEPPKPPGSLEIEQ"}, "[7]": {"target": "EGFR(E746-A750del) (Homo sapiens, UniProt P00533, DEL746-750)", "sequence (P00533 with tags, fused parts or gaps DEL746-750)": "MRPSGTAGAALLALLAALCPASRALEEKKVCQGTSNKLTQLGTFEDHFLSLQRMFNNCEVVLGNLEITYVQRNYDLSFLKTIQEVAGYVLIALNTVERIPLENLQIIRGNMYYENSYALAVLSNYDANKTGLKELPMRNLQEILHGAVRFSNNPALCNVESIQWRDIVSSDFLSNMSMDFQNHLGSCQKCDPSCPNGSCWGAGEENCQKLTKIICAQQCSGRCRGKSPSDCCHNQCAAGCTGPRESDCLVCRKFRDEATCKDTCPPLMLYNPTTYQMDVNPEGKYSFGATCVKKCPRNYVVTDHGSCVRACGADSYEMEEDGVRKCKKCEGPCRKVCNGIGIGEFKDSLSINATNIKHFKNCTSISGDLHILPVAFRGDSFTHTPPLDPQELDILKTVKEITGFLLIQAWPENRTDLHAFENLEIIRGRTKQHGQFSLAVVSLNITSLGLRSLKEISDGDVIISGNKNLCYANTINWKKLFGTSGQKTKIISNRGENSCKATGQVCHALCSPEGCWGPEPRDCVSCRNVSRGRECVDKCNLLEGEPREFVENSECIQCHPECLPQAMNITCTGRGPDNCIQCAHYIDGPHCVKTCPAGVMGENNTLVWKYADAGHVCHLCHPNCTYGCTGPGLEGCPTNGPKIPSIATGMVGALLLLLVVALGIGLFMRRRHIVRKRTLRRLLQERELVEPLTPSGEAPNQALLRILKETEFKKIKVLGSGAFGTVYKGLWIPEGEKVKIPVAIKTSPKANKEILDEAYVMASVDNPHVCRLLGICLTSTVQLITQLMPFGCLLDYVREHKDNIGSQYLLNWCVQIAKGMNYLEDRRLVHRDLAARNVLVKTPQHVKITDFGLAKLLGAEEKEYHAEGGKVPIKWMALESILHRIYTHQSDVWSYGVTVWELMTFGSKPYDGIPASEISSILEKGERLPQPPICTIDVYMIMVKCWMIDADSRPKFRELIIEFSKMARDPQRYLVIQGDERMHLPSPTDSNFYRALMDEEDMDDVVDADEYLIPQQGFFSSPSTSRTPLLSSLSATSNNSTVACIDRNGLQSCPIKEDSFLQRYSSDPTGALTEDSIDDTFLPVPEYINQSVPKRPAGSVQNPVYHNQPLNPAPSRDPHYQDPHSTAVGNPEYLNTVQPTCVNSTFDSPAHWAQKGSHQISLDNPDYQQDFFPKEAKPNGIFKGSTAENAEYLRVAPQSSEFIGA"}, "[8]": {"target": "T4, NEK5 (Homo sapiens, UniProt Q6P3R8)", "T4 sequence (Q6P3R8 1-708)": "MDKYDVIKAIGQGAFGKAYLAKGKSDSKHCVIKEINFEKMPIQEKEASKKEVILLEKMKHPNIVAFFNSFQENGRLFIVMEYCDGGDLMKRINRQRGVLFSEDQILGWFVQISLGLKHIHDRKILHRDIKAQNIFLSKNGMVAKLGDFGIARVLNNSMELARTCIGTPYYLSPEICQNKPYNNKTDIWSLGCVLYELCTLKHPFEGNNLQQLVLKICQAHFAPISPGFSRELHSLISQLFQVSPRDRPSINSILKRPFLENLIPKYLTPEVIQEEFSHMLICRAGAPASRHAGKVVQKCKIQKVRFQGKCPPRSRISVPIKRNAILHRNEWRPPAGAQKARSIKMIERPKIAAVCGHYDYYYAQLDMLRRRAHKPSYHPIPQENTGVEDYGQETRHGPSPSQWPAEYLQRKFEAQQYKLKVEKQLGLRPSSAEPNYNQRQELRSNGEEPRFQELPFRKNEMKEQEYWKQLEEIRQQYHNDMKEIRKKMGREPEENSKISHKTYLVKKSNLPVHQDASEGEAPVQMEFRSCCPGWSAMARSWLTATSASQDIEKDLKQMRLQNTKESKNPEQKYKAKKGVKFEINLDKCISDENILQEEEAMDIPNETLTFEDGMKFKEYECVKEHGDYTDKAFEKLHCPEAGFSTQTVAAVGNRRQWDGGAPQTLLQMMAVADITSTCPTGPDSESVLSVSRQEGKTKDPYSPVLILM"}, "[9]": {"settings": "read-out: Talazoparib (BMN 673) / %Ctrl @ 10000nM"}, "[10]": {"settings": "read-out: Olaparib / %Ctrl @ 10000nM"}, "[11]": {"settings": "read-out: Niraparib (MK-4827) / %Ctrl @ 10000nM"}, "[12]": {"settings": "read-out: Rucaparib / %Ctrl @ 10000nM, binding competition, % of control"}}, "note": "Where two headings read alike, the source gives them in different places."}
{"smiles": "Cn1ncnc1[C@H]1c2n[nH]c(=O)c3cc(F)cc(c23)N[C@@H]1c1ccc(F)cc1", "note": "[Talazoparib]", "values": [{"measurement": "percent of control binding at 10 µM", "setting": "[1]; [9]", "value": 100, "unit": "%"}, {"measurement": "percent of control binding at 10 µM", "setting": "[2]; [9]", "value": 100, "unit": "%"}, {"measurement": "percent of control binding at 10 µM", "setting": "[3]; [9]", "value": 97, "unit": "%"}, {"measurement": "percent of control binding at 10 µM", "setting": "[4]; [9]", "value": 80, "unit": "%"}, {"measurement": "percent of control binding at 10 µM", "setting": "[5]; [9]", "value": 100, "unit": "%"}, {"measurement": "percent of control binding at 10 µM", "setting": "[6]; [9]", "value": 86, "unit": "%"}, {"measurement": "percent of control binding at 10 µM", "setting": "[7]; [9]", "value": 100, "unit": "%"}, {"measurement": "percent of control binding at 10 µM", "setting": "[8]; [9]", "value": 97, "unit": "%"}]}
{"smiles": "O=C(c1cc(Cc2n[nH]c(=O)c3ccccc23)ccc1F)N1CCN(C(=O)C2CC2)CC1", "note": "[Olaparib]", "values": [{"measurement": "percent of control binding at 10 µM", "setting": "[1]; [10]", "value": 88, "unit": "%"}, {"measurement": "percent of control binding at 10 µM", "setting": "[2]; [10]", "value": 95, "unit": "%"}, {"measurement": "percent of control binding at 10 µM", "setting": "[3]; [10]", "value": 95, "unit": "%"}, {"measurement": "percent of control binding at 10 µM", "setting": "[4]; [10]", "value": 98, "unit": "%"}, {"measurement": "percent of control binding at 10 µM", "setting": "[5]; [10]", "value": 83, "unit": "%"}, {"measurement": "percent of control binding at 10 µM", "setting": "[6]; [10]", "value": 90, "unit": "%"}, {"measurement": "percent of control binding at 10 µM", "setting": "[7]; [10]", "value": 97, "unit": "%"}, {"measurement": "percent of control binding at 10 µM", "setting": "[8]; [10]", "value": 96, "unit": "%"}]}
{"smiles": "NC(=O)c1cccc2cn(-c3ccc([C@@H]4CCCNC4)cc3)nc12", "note": "[Niraparib]", "values": [{"measurement": "percent of control binding at 10 µM", "setting": "[1]; [11]", "value": 98, "unit": "%"}, {"measurement": "percent of control binding at 10 µM", "setting": "[2]; [11]", "value": 81, "unit": "%"}, {"measurement": "percent of control binding at 10 µM", "setting": "[3]; [11]", "value": 91, "unit": "%"}, {"measurement": "percent of control binding at 10 µM", "setting": "[4]; [11]", "value": 88, "unit": "%"}, {"measurement": "percent of control binding at 10 µM", "setting": "[5]; [11]", "value": 97, "unit": "%"}, {"measurement": "percent of control binding at 10 µM", "setting": "[6]; [11]", "value": 99, "unit": "%"}, {"measurement": "percent of control binding at 10 µM", "setting": "[7]; [11]", "value": 96, "unit": "%"}, {"measurement": "percent of control binding at 10 µM", "setting": "[8]; [11]", "value": 89, "unit": "%"}]}
{"smiles": "CNCc1ccc(-c2[nH]c3cc(F)cc4c3c2CCNC4=O)cc1", "note": "[Rucaparib]", "values": [{"measurement": "percent of control binding at 10 µM", "setting": "[1]; [12]", "value": 100, "unit": "%"}, {"measurement": "percent of control binding at 10 µM", "setting": "[2]; [12]", "value": 90, "unit": "%"}, {"measurement": "percent of control binding at 10 µM", "setting": "[3]; [12]", "value": 100, "unit": "%"}, {"measurement": "percent of control binding at 10 µM", "setting": "[4]; [12]", "value": 100, "unit": "%"}, {"measurement": "percent of control binding at 10 µM", "setting": "[5]; [12]", "value": 48, "unit": "%"}, {"measurement": "percent of control binding at 10 µM", "setting": "[6]; [12]", "value": 93, "unit": "%"}, {"measurement": "percent of control binding at 10 µM", "setting": "[7]; [12]", "value": 81, "unit": "%"}, {"measurement": "percent of control binding at 10 µM", "setting": "[8]; [12]", "value": 87, "unit": "%"}]}
